Data published in patent US11130772B2, “CYP-eicosanoid derivatives” (MAX-DELBRUECK-CENTRUM FUER MOLEKULARE MEDIZIN, priority 2014, dated 2021).
Entries after “also recorded” stand apart in the source; their conditions may differ.

Tested on: spontaneously beating neonatal rat cardiomyocytes (NRCMs)
Assay: Chronotropic effect on spontaneously beating neonatal rat cardiomyocytes (in vitro cardiac arrhythmia model)
Assay type: cell-based, neonatal Wistar rats
Conditions: 30 nM final concentration, 5 min incubation
Excerpt: The activity of the n-3 PUFA analogues according to the invention can, for example, be determined in appropriate in vitro and/or in vivo assays. For instance, the biological activity of the n-3 PUFA analogues according to the present invention may be determined using the established cell model of Kang and Leaf (Proc Natl Acad Sci USA, 1994. 91(21): p. 9886-90.) known to those skilled in the art.
In order to measure the biological activities of the novel compounds an established cell model was used (Kang, J. X. and A. Leaf, Effects of long-chain polyunsaturated fatty acids on the contraction of neonatal rat cardiac myocytes. Proc Natl Acad Sci USA, 1994. 91(21): p. 9886-90.). The spontaneously beating neonatal rat cardiomyocytes (NRCMs) are a model system to investigate anti-arrhythmic effects of test-compounds.
Isolation and cultivation of NRCMs were performed as described previously (Wallukat, G; Wollenberger, A. Biomed Biochim Acta. 1987;78:634-639; Wallukat G, Homuth V, Fischer T, Lindschau C, Horstkamp B, Jupner A, Baur E, Nissen E, Vetter K, Neichel D, Dudenhausen J W, Haller H, Luft F C. J Clin Invest. 1999; 103: 945-952). Briefly, neonatal Wistar rats (1-2 days old) were killed in conformity to the recommendations of the Community of Health Service of the City of Berlin and the cardiomyocytes were dissociated from the minced ventricles with a 0.2% solution of crude trypsin. The isolated cells were then cultured as monolayers on the bottom (12.5 cm^2) of Falcon flasks in 2.5 ml of Halle SM 20-I medium equilibrated with humidified air. The medium contained 10% heat-inactivated FCS and 2 μmol/l fluoro-deoxyuridine (Serva, Heidelberg, Germany), the latter to prevent proliferation of non-muscle cells. The NRCMs (2.4×10^6 cells/flask) were cultured at 37° C. in an incubator. After 5 to 7 days, the NRCMs formed spontaneously beating cell clusters. […] On the day of the experiment, the culture medium was replaced by 2.0 ml fresh serum-containing medium. Two hours later, the beating rates were monitored at 37° C. using an inverted microscope equipped with a heating stage. To determine the basal rate, 6 to 8 individual clusters were selected and the number of contractions was counted for 15 sec. After that, the compound to be tested was added to the culture and the beating rate of the same clusters was monitored 5 min later again. Based on the difference between the basal and compound-induced beating rate of the individual clusters, the chronotropic effects (Δ beats/min) were calculated and are given as mean±SE values. N refers to the number of clusters monitored which originated, in general, from at least three independent NRCM cultures.
All compounds tested were added to the NRCMs at a final concentration of 30 nM and the measurement was performed after 5 min of incubation; except EPA that was used at a final concentration of 3.3 μM and the effect was monitored after 30 min of incubation.

Row | Compound | chronotropic effect on spontaneous beating rate (in words) | chronotropic effect (Δ beats/min), mean±SE (n=12 clusters) [beats/min]
1 | N^1-(15-((2-acetamidobenzo[d]thiazol-7-yl)oxy)pentadec-5(Z)-en-1-yl)-N^2-methyloxalamide [C43] | negative chronotropic effect | –
2 | CNC(=O)C(=O)NCCCC/C=C\CCCCCCCCCSc1ccccc1O [C44, (Z)—N^1-(15-((2-hydroxyphenyl)thio)pentadec-5-en-1-yl)-N^2-methyloxalamide] | lowest activity; also recorded: negative chronotropic effect | −7.5±4.5
3 | CNC(=O)C(=O)NCCCC/C=C\CCCCCCCCCC1=NOS(=O)N1 (stereo not shown) [C38, N^1-methyl-N^2-(15-(2-oxido-3H-1,2,3,5-oxathiadiazol-4-yl)pentadec-5(Z)-en-1-yl)oxalamide] | negative chronotropic effect | –
4 | CNC(=O)C(=O)NCCCCc1ccccc1CCCCCCCCCP(=O)([O-])[O-].[Na+].[Na+] [C49] | negative chronotropic effects | –
5 | CNC(=O)C(=O)NCCCc1ccccc1CCCCCCP(=O)([O-])[O-].[Na+].[Na+] [C48] | negative chronotropic effects | –
6 | CNC(=O)C(=O)NCCCC/C=C\CCCCCCCCCP(=O)([O-])[O-].[Na+].[Na+] [C41, disodium 15-(2-(methylamino)-2-oxoacetamido)pentadec-10(Z)-enylphosphonate] | negative chronotropic effect | –
7 | CNC(=O)C(=O)NCCCC/C=C\CCCCCCCCCS(=O)(=O)[O-].[Na+] [C42, Sodium 15-(2-(methylamino)-2-oxoacetamido)pentadec-10(Z)-en-1-sulfonate] | negative chronotropic effect | –
8 | CNC(=O)C(=O)NCCCC/C=C\CCCCCCCCCC(=O)NS(=O)(=O)c1ccccc1 [C50, N^1-(16-phenylsulfonamido-16-oxohexadec-5(Z)-en-1-yl)-N^2-methyloxalamide] | negative chronotropic effect | –
9 | CCC1OC1C/C=C\C/C=C\C/C=C\C/C=C\CCCC(=O)O (stereo not shown) [17,18-EEQ, 17,18-epoxyeicosatetraenoic acid, reference compound] | negative chronotropic effect | –
